In patent US6011047A, “Substituted 3-amino-2-hydroxyphenylacetamide derivatives as enzyme inhibitors” (priority 1997, dated 2000):

Columns and labels:
[1] = tested on: thrombin; conditions: in words; cited from earlier work
[2] = in words; cited from earlier work
[3] = in words; cited from earlier work; remark: listed apart in the source
[4] = tested on: thrombotic occlusion in rat carotid artery; conditions: dose that prevents complete thrombotic occlusion in 50% of animals, FeCl3 model; cited from earlier work
[5] = biological target: T1, human alpha-thrombin (Homo sapiens, UniProt P00734); test: in vitro thrombin inhibition assay (Ki, chromogenic substrate Pefachrome t-PA); assay type: biochemical; conditions: human alpha-thrombin 0.2 nM; steady state velocities over 60 minutes; pH 7.5
Procedure: The ability of the compounds of Example 11 and 14 to act as an inhibitor of thrombin catalytic activity was assessed by determining the compounds, inhibition constant, Ki.
Enzyme activity was determined using the chromogenic substrate Pefachrome t-PA (CH3 SO2 -D-hexahydrotyrosine-glycyl-L-arginine-p-Nitroanilide), obtained from Pentapharm Ltd. The substrate was reconstituted in deionized water prior to use. Purified human alpha-thrombin (3000U/mg specific activity) was obtained from Enzyme Research Laboratories, Inc. The buffer used for all assays was HBSA (10 mM HEPES, pH 7.5, 150 mM sodium chloride, 0.1% bovine serum albumin).
At time zero, 50 microliters of alpha-thrombin diluted in HBSA were added to the wells, yielding a final concentration of 0.2 nM in a total volume of 250 microliters. Velocities of chromogenic substrate hydrolysis which occurred over 60 minutes were measured by the change in absorbance at 405 nm using a Thermo Max® Kinetic Microplate Reader. […] The extent of substrate hydrolysis was less than 5% over the course of this assay.

[6] = biological target: T1, human alpha-thrombin; test: Thrombin (fIIa) IC50 assay for specificity determination; assay type: biochemical; conditions: 30-minute incubation
Procedure: (§1) The ability of compounds of this invention to act as a selective inhibitor of thrombin catalytic activity was assessed by determining the concentration of test compound which inhibited the activity of this enzyme by 50%, (IC50), and comparing this value to that determined for some or all of the following related serine proteases: recombinant tissue plasminogen activator (rt-PA), plasmin, activated protein C (aPC), chymotrypsin and trypsin.
(§2) The buffer used for all assays was HBSA (10 mM HEPES, pH 7.5, 150 mM sodium chloride, 0.1% bovine serum albumin). The assay for IC50 determinations was conducted by combining in appropriate wells of a Corning microtiter plate, 50 microliters of HBSA, 50 microliters of the test compound at a specified concentration (covering a broad concentration range) diluted in HBSA (or HBSA alone for Vo (uninhibited velocity) measurement), and 50 microliters of the enzyme diluted in HBSA. […] The initial velocity of chromogenic substrate hydrolysis was measured by the change in absorbance at 405 nm using a Thermo Max® Kinetic Microplate Reader over a 5 minute period in which less than 5% of the added substrate was utilized. […]
Enzyme activity was determined using the chromogenic substrate, Pefachrome t-PA (CH3 SO2 -D-hexahydrotyrosine-glycyl-L-Arginine-p-nitroaniline, obtained from Pentapharm Ltd.). […]

[7] = biological target: T2, rt-PA (Homo sapiens, UniProt P00750); test: Recombinant tissue plasminogen activator (rt-PA) IC50 assay; assay type: biochemical; conditions: maximal concentration 2500 nM
T2 construct: purchased Genentech Inc. Activase
T2 sequence (P00750 36-562): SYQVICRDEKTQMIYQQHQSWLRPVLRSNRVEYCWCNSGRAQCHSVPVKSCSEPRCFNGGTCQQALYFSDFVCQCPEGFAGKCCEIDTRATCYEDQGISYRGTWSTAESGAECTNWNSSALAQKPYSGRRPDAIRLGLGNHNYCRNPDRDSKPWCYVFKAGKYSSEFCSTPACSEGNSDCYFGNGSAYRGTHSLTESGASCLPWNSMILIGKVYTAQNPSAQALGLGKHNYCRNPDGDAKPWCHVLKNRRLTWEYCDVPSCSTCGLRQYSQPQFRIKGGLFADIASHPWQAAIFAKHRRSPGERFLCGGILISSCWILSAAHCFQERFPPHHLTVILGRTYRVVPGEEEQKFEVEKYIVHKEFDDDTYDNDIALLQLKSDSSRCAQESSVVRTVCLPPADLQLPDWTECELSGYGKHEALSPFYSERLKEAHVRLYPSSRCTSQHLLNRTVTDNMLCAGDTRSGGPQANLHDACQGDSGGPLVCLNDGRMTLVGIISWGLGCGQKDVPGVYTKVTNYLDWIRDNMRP
Procedure: as §1, §2
rt-PA catalytic activity was determined using the substrate, Pefachrome t-PA (CH3 SO2 -D-hexahydrotyrosine-glycyl-L-arginine-p-nitroanilide, obtained from Pentapharm Ltd.). […]

[8] = biological target: Plasmin (Homo sapiens, UniProt P00747); test: Plasmin IC50 assay; assay type: biochemical; conditions: maximal concentration 2500 nM
Sequence of Plasmin (P00747 581-810 limits assumed): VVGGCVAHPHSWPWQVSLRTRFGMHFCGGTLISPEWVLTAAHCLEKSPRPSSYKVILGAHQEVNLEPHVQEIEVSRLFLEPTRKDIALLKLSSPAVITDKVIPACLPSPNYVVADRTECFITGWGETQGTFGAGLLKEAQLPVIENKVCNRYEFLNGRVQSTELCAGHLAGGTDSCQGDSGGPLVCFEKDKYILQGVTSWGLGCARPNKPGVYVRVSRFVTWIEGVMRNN
Sequence of Plasmin (P00747 97-580 limits assumed): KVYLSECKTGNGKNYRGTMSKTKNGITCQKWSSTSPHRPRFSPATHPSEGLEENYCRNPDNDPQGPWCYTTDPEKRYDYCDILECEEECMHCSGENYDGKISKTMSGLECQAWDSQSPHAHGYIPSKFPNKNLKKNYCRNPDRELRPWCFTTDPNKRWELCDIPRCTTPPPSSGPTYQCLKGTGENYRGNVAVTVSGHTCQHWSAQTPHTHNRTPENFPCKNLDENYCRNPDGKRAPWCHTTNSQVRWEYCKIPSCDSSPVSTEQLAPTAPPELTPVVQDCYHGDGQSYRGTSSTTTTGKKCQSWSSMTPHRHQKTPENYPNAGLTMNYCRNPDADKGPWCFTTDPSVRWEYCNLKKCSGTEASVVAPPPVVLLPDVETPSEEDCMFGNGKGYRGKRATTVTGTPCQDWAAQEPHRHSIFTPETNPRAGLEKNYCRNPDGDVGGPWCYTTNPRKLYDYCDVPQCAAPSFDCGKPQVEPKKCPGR
Procedure: as §1, §2
Plasmin catalytic activity was determined using the chromogenic substrate, S-2366 (L-pyro-Glu-Pro-Arg-pNa.HCl), which was obtained from DiaPharma Group. […]

[9] = biological target: T3, aPC (Homo sapiens, UniProt P04070); test: Activated protein C (aPC) IC50 assay; assay type: biochemical; conditions: maximal concentration 2500 nM
T3 construct: purchased Hematologic Technologies, Inc
T3 sequence (P04070 212-450 limits assumed): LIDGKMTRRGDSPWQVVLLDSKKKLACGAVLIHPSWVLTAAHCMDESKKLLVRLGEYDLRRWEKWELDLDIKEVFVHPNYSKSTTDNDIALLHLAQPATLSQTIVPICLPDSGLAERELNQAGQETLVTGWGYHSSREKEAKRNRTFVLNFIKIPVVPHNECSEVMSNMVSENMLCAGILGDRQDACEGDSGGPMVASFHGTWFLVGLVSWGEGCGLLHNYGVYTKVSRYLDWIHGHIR
T3 sequence (P04070 43-197 limits assumed): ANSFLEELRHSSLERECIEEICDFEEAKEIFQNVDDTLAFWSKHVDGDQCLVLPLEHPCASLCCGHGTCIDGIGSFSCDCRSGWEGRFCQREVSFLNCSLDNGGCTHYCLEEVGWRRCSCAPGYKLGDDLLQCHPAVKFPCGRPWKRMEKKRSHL
Procedure: as §1, §2
aPC catalytic activity was determined using the chromogenic substrate, Pefachrome PC (delta-carbobenzloxy-D-lysine-L-prolyl-L-arginine-p-nitroanilide), obtained from Pentapharm Ltd.). […]

[10] = biological target: T4, Chymotrypsin (Bos taurus, UniProt P00766); test: Chymotrypsin IC50 assay; assay type: biochemical, bovine; conditions: maximal concentration 2500 nM
T4 construct: bovine pancreatic a-chymotrypsin; purchased Worthington Biochemical Corp. CDI; host or cells: bovine pancreas
Procedure: as §1, §2
Chymotrypsin catalytic activity was determined using the chromogenic substrate, S-2586 (methoxy-succinyl-L-arginine-L-prolyl-L-tyrosyl-p-nitroanilide), which was obtained from DiaPharma Group. […]

[11] = biological target: T5, Trypsin (Bos taurus, UniProt P00760); test: Trypsin IC50 assay; assay type: biochemical, bovine; conditions: 30-minute incubation
T5 construct: bovine pancreatic trypsin; purchased Worthington Biochemical Corp. TRL3; host or cells: bovine pancreas
T5 sequence (P00760 24-246): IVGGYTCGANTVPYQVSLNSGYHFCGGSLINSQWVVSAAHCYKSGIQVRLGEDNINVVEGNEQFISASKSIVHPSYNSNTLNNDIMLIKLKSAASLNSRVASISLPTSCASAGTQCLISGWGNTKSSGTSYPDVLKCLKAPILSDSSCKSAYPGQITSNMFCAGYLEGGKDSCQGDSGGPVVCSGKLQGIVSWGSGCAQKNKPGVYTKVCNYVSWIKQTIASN
Procedure: as §1, §2
Trypsin catalytic activity was determined using the chromogenic substrate, S-2222 (benzoyl-L-isoleucine-L-glutamic acid-(gamma-methyl ester)-L-arginine-p-nitroanilide), which was obtained from DiaPharma Group. […]

[12] = in words; cited from earlier work; remark: listed apart in the source
[13] = tested on: atherosclerotic rabbit femoral artery; conditions: in words; cited from earlier work

Ki [5]	IC50 [6]	IC50 [7]	IC50 [8]	IC50 [9]	IC50 [10]	IC50 [11]	Molecule	selectivity of thrombin inhibition [1]	further results
							N=C(N)c1ccc(CC(=O)C(=O)O)cc1 [APPA, 4-amidinophenylpyruvic acid]	non-selective, inhibiting trypsin, plasmin and kallikrein	toxicity [2]: low toxicity; pharmacokinetics [3]: favourable pharmacokinetics
							CC1CNc2c(cccc2S(=O)(=O)N[C@@H](CCCNC(=N)N)C(=O)N2CC[C@@H](C)C[C@@H]2C(=O)O)C1 (stereo partly drawn) [Argatroban, 2R,4R-4-methyl-1-[N-2-(3-methyl-1,2,3,4-tetrahydro-8-quinolinesulfonyl)-L-argininy]-2-piperdinecarboxylic acid]		ED50 [4]: 3.8 mg/kg
1 nM	1.44 nM	> 2500 nM	> 2500 nM	> 2500 nM	> 2500 nM	1810 nM	COc1c(NS(=O)(=O)Cc2ccccc2)ccc(C)c1CC(=O)N[C@H](C=O)CCCN=C(N)N [Example 14, N-[2-methoxy-3-(N-benzylsulfonylamino)-6-methylphenylacetyl]-L-argininal]		
							CS(=O)(=O)O.CS(=O)(=O)O.N=C(N)Nc1ccc(C(=O)Oc2ccc3cc(C(=N)N)ccc3c2)cc1 [FUT 175, 6-amidino-2-naphthyl-4-guanidinobenzoate dimethanesulfonate]	non-selective	
0.79 nM	3.19 nM	> 2500 nM	> 2500 nM	> 2500 nM	> 2500 nM	1140 nM	Cc1ccc(NS(=O)(=O)Cc2ccccc2)c(O)c1CC(=O)N[C@H](C=O)CCCN=C(N)N [Example 11, N-[2-hydroxy-3-(N-benzylsulfonylamino)-6-methylphenylacetyl]-L-argininal]		
							Hirudin		antithrombotic / anticoagulant effect [12]: potent antithrombotic agent in vivo; inhibition of smooth muscle proliferation and associated restenosis [13]: effectively inhibit smooth muscle proliferation and the associated restenosis
